# In ChEMBL document CHEMBL1122916, “Synthesis of xanthines as adenosine antagonists, a practical quantitative structure-activity relationship application” (J Med Chem, 1985):
# How the values were obtained:
# Bos taurus = species on record: Bos taurus; test: log(1000/IC50 determined from bovine brain membrane) expressed as potency; type: functional
# Adenosine receptor A1 [1] = target: T1, Adenosine receptor A1 (Rattus norvegicus, UniProt P25099); test: Binding affinity against rat brain adenosine A1 receptor by using N6-[3H]- cyclohexyladenosine as radioligand
# T1 sequence (P25099 whole entry): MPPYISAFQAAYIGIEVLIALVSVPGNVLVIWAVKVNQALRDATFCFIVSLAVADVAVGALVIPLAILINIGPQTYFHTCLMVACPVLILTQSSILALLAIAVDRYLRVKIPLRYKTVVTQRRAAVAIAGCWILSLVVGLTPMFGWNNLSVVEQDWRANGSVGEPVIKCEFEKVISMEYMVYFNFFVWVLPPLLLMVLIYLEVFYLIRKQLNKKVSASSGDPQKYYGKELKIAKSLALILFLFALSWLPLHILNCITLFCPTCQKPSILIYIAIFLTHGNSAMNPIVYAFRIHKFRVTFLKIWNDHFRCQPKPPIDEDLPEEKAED
# Adenosine receptor A1 [2] = target: T2, Adenosine receptor A1 (Bos taurus, UniProt P28190)
# T2 sequence (P28190 whole entry): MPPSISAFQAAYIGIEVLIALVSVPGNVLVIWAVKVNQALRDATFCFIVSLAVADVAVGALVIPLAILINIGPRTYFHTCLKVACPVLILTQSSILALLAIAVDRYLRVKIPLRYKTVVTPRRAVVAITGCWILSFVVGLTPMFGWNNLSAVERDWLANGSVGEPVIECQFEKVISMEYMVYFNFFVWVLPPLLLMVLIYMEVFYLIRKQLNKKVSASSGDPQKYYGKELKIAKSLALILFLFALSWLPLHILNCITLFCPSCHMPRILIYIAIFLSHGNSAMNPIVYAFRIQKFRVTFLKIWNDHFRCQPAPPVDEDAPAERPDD
# Description: Binding affinity against bovine brain adenosine A1 receptor by using N6-[3H]- cyclohexyladenosine
# [3] = Solubility in 0.1 M phosphate buffer at pH 7.4; type: physicochemical
# [4] = Partition coefficient (logP); type: physicochemical; settings: octanol/water
# [5] = Solubility in 0.1 N HCl; type: physicochemical
# [6] = Equilibrium constant (pKa) was determined.; type: physicochemical
# [7] = phosphate buffer, read-out: Solubility
Structure (SMILES),Potency (Bos taurus),IC50 (Adenosine receptor A1 [2]) [nM],further results
Cn1c(=O)c2nc(-c3ccc(N)cc3N)[nH]c2n(C)c1=O,2.1,,
COc1ccccc1-c1nc2c(=O)n(C)c(=O)n(C)c2[nH]1,0.46,,
CCn1c(=O)c2nc(-c3ccc(S(=O)(=O)NCC(C)O)cc3)[nH]c2n(CC)c1=O (centres undefined),,4.2,IC50 (Adenosine receptor A1 [1]): 138 nM
CCn1c(=O)c2nc(-c3ccc(Cl)cc3N)[nH]c2n(CC)c1=O,3.1,,
COc1cccc(-c2nc3c(=O)n(C)c(=O)n(C)c3[nH]2)c1,1.7,,
Cn1c(=O)c2[nH]c(-c3ccc(Cl)cc3N)nc2n(C)c1=O,,0.35,
Cc1ccc(-c2nc3c(=O)n(C)c(=O)n(C)c3[nH]2)cc1,3.1,,
COc1ccc(-c2nc3c(=O)n(C)c(=O)n(C)c3[nH]2)cc1,2.82,,
CCCn1c(=O)c2nc(-c3ccccc3)[nH]c2n(CCC)c1=O,3.15,,
Cn1c(=O)c2[nH]c(-c3ccc4ccccc4c3)nc2n(C)c1=O,,5.5,
Cn1c(=O)c2[nH]c(-c3ccc(S(=O)(=O)O)cc3)nc2n(C)c1=O,,21.9,
CN(C)c1cccc(-c2nc3c(=O)n(C)c(=O)n(C)c3[nH]2)c1,1.1,,
Cc1ccccc1-c1nc2c(=O)n(C)c(=O)n(C)c2[nH]1,2.19,,
Cc1ccccc1-c1nc2c([nH]1)c(=O)n(C)c(=O)n2C,,6.5,
CCCn1c(=O)c2[nH]c(-c3ccc(Cl)cc3N)nc2n(CCC)c1=O,,,"solubility [3, 7]: < 0.1 µg/mL; logP [4]: 4.02; solubility [5]: 0.4 µg/mL; pKa [6]: 8.4"
CCn1c(=O)c2[nH]c(-c3ccc(S(=O)(=O)N4CCSCC4)cc3)nc2n(CC)c1=O,,36.6,IC50 (Adenosine receptor A1 [1]): 646 nM
CSc1ccc(-c2nc3c(=O)n(C)c(=O)n(C)c3[nH]2)cc1,2.7,,
CCn1c(=O)c2[nH]c(-c3ccccc3)nc2n(CC)c1=O,,,solubility ([3]; buffer): 6 µg/mL; logP [4]: 2.93; solubility [5]: 1 µg/mL; pKa [6]: 9.1
C=CCn1c(=O)c2[nH]c(-c3ccccc3)nc2n(C)c1=O,2.4,,
CCCn1c(=O)c2nc(-c3ccccc3N)[nH]c2n(CCC)c1=O,,0.75,"solubility [3, 7]: < 1 µg/mL; logP [4]: 3.54; IC50 (Adenosine receptor A1 [1]): 41 nM; solubility [5]: 4 µg/mL; pKa [6]: 9.1"
Cn1c(=O)c2nc(-c3cccc([N+](=O)[O-])c3)[nH]c2n(C)c1=O,1.3,,

Structure (SMILES),Potency (Bos taurus),IC50 (Adenosine receptor A1 [2]) [nM],further results
Cn1c(=O)c2nc(-c3ccc(-c4ccccc4)cc3)[nH]c2n(C)c1=O,2.46,,
CCCn1c(=O)c2[nH]c(-c3ccccc3)nc2n(CCC)c1=O,,0.7,
C=CCn1c(=O)c2nc(-c3ccc(S(=O)(=O)O)cc3)[nH]c2n(CC=C)c1=O,,1140,IC50 (Adenosine receptor A1 [1]): 7440 nM
Cc1cc(O)cc(C)c1-c1nc2c(=O)n(C)c(=O)n(C)c2[nH]1,1.52,,
Cn1c(=O)c2nc(-c3ccccc3N)[nH]c2n(C)c1=O,2.26,5.5,
Cn1c(=O)c2nc(-c3ccc(C(=O)O)cc3)[nH]c2n(C)c1=O,1.3,,
CCn1c(=O)c2[nH]c(-c3ccc(S(=O)(=O)NCCCN(C)C)cc3)nc2n(CC)c1=O,,1.6,IC50 (Adenosine receptor A1 [1]): 70 nM
CCn1c(=O)c2[nH]c(-c3ccc(S(N)(=O)=O)cc3)nc2n(CC)c1=O,,0.91,IC50 (Adenosine receptor A1 [1]): 47 nM
CCOc1ccc(-c2nc3c(=O)n(C)c(=O)n(C)c3[nH]2)cc1,2.7,,
Cn1c(=O)c2nc(-c3ccc(Cl)cc3)[nH]c2n(C)c1=O,3.1,,
Cn1c(=O)c2nc(-c3ccc([N+](=O)[O-])cc3N)[nH]c2n(C)c1=O,2.6,,
Cc1ccc(-c2nc3c(=O)n(C)c(=O)n(C)c3[nH]2)c(N)c1,2,,
Cn1c(=O)c2nc(-c3cccc(F)c3)[nH]c2n(C)c1=O,2.4,,
Cn1c(=O)c2nc(-c3ccc([N+](=O)[O-])cc3)[nH]c2n(C)c1=O,2.1,,
Cn1c(=O)c2[nH]c(-c3ccccc3F)nc2n(C)c1=O,,12.5,
Cc1cccc(-c2nc3c(=O)n(C)c(=O)n(C)c3[nH]2)c1,1.89,,
Cn1c(=O)c2[nH]c(-c3ccc(N)cc3)nc2n(C)c1=O,,1.75,
CCn1c(=O)c2nc(-c3ccc(S(=O)(=O)N4CCN(C)CC4)cc3)[nH]c2n(CC)c1=O,,6.5,IC50 (Adenosine receptor A1 [1]): 190 nM
COc1cc(OC)cc(-c2nc3c(=O)n(C)c(=O)n(C)c3[nH]2)c1,0.3,,
Cn1c(=O)c2[nH]c(-c3ccc(Br)cc3)nc2n(C)c1=O,,0.75,
